PubChem BioAssay AID248 (DTP/NCI, 2004)
Inconclusive results and toxic doses are left out.

Test system: L1210 leukemia ip in BDF1 mice, survival T/C
Assay: NCI In Vivo Anticancer Drug Screen. Data for tumor model L1210 Leukemia (intraperitoneal) in B6D2F1 (BDF1) mice
Conditions: endpoint: mean survival time, higher = longer survival
How it was run: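 Tumor cells were implanted, animals were treated, and survival was followed. The result divides the treated measurement by the vehicle-control measurement.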

[1] = dose: 100.0 mg/kg/injection, schedule: Q01DX001 (ip), vehicle: saline
[2] = dose: 200.0 mg/kg/injection, schedule: Q01DX001 (ip), vehicle: saline
[3] = dose: 400.0 mg/kg/injection, schedule: Q01DX001 (ip), vehicle: saline

Compound: CC(=O)Nc1ccc(S(=O)(=O)NC(C(=O)O)C(=O)O)cc1
- T/C [1]: 100 % of control
- T/C [2]: 103 % of control
- T/C [3]: 103 % of control

Compound: O=C(/C=C\c1ccc(/C=C/C(=O)Nc2cccc(C3=NCCN3)c2)cc1)Nc1cccc(C2=NCCN2)c1
- T/C (dose: 3.75 mg/kg/injection, schedule: Q01DX Z (ip), vehicle: saline): 107 % of control
- T/C (dose: 7.5 mg/kg/injection, schedule: Q01DX Z (ip), vehicle: saline): 120 % of control
- T/C (dose: 15.0 mg/kg/injection, schedule: Q01DX Z (ip), vehicle: saline): 122 % of control
- T/C (dose: 30.0 mg/kg/injection, schedule: Q01DX Z (ip), vehicle: saline): 184 % of control
- T/C (dose: 60.0 mg/kg/injection, schedule: Q01DX Z (ip), vehicle: saline): 189 % of control
- T/C (dose: 120.0 mg/kg/injection, schedule: Q01DX Z (ip), vehicle: saline): 182 % of control
- T/C (dose: 240.0 mg/kg/injection, schedule: Q01DX Z (ip), vehicle: saline): 167 % of control

Compound: Cc1ccc([PH+](c2ccc(C)cc2)c2ccc(C)cc2)cc1.Cc1ccc([PH+](c2ccc(C)cc2)c2ccc(C)cc2)cc1.[Cl][Hg][Cl]
- T/C (dose: 50.0 mg/kg/injection, schedule: Q01DX009 (ip), vehicle: Klucel (hydroxypropylcellulose) (HPC)): 86 % of control
- T/C (dose: 100.0 mg/kg/injection, schedule: Q01DX009 (ip), vehicle: Klucel (hydroxypropylcellulose) (HPC)): 91 % of control
- T/C (dose: 200.0 mg/kg/injection, schedule: Q01DX009 (ip), vehicle: Klucel (hydroxypropylcellulose) (HPC)): 86 % of control

Compound: CCOP1(=S)OCCO1
- T/C (dose: 100.0 mg/kg/injection, schedule: Q04DX003 (ip), vehicle: Klucel (hydroxypropylcellulose) (HPC)): 100 % of control
- T/C (dose: 200.0 mg/kg/injection, schedule: Q04DX003 (ip), vehicle: Klucel (hydroxypropylcellulose) (HPC)): 103 % of control

Compound: CC(C)([NH-])CO.CC(C)([NH-])CO.[Cl][Cd][Cl]
- T/C (dose: 3.13 mg/kg/injection, schedule: Q01DX009 (ip), vehicle: saline sonified): 98 % of control
- T/C (dose: 5.0 mg/kg/injection, schedule: Q01DX009 (ip), vehicle: saline): 96 % of control
- T/C (dose: 6.25 mg/kg/injection, schedule: Q01DX009 (ip), vehicle: saline sonified): 96 % of control
- T/C (dose: 6.25 mg/kg/injection, schedule: Q04DX003 (ip), vehicle: saline sonified): 95 % of control
- T/C (dose: 10.0 mg/kg/injection, schedule: Q01DX009 (ip), vehicle: saline): 100 % of control
- T/C (dose: 10.0 mg/kg/injection, schedule: Q04DX003 (ip), vehicle: alcohol): 93 % of control
- T/C (dose: 12.5 mg/kg/injection, schedule: Q01DX009 (ip), vehicle: saline sonified): 98 % of control
- T/C (dose: 12.5 mg/kg/injection, schedule: Q04DX003 (ip), vehicle: saline sonified): 92 % of control
- T/C (dose: 20.0 mg/kg/injection, schedule: Q04DX003 (ip), vehicle: alcohol): 89 % of control

Compound: CN(CCC#N)C(=O)Nc1ccc(Cl)c(Cl)c1
- T/C (dose: 100.0 mg/kg/injection, schedule: Q04DX002 (ip), vehicle: other): 109 % of control
- T/C (dose: 200.0 mg/kg/injection, schedule: Q04DX002 (ip), vehicle: other): 102 % of control
- T/C (dose: 400.0 mg/kg/injection, schedule: Q04DX002 (ip), vehicle: other): 102 % of control

Compound: Nc1c(Cl)cc(S(=O)(=O)O)cc1Br
- T/C (dose: 50.0 mg/kg/injection, schedule: Q01DX001 (ip), vehicle: saline): 101 % of control
- T/C [1]: 103 % of control
- T/C [2]: 101 % of control
- T/C [3]: 101 % of control

Compound: O=C1C=C(O)C2=C(CCCC2)C1=O
- T/C (dose: 100.0 mg/kg/injection, schedule: Q01DX001 (ip), vehicle: water): 96 % of control

Compound: COCC(=N)C(C#N)(OC)C(=O)c1ccccc1 (stereo unspecified)
- T/C (dose: 75.0 mg/kg/injection, schedule: Q01DX001 (ip), vehicle: other): 101 % of control
- T/C (dose: 150.0 mg/kg/injection, schedule: Q01DX001 (ip), vehicle: other): 90 % of control

Compound: Oc1ccc(O)c(-c2ccccc2)c1
- T/C (dose: 100.0 mg/kg/injection, schedule: Q01DX001 (ip), vehicle: carboxymethylcellulose (CMC)): 93 % of control
- T/C (dose: 200.0 mg/kg/injection, schedule: Q01DX001 (ip), vehicle: carboxymethylcellulose (CMC)): 101 % of control

Compound: Nc1cnc(N)nc1
- T/C (dose: 75.0 mg/kg/injection, schedule: Q01DX Z (ip), vehicle: saline): 103 % of control
- T/C (dose: 150.0 mg/kg/injection, schedule: Q01DX Z (ip), vehicle: saline): 111 % of control

Compound: CC(=O)OCC(OC(C)=O)C(OC(C)=O)C(OC(C)=O)C(/C=N/NC(N)=S)=N/NC(N)=S (stereo unspecified)
- T/C (dose: 100.0 mg/kg/injection, schedule: Q01DX009 (ip), vehicle: other): 95 % of control
- T/C (dose: 100.0 mg/kg/injection, schedule: Q04DX003 (ip), vehicle: other): 98 % of control
- T/C (dose: 200.0 mg/kg/injection, schedule: Q01DX009 (ip), vehicle: other): 91 % of control
- T/C (dose: 200.0 mg/kg/injection, schedule: Q04DX003 (ip), vehicle: other): 103 % of control
- T/C (dose: 400.0 mg/kg/injection, schedule: Q04DX003 (ip), vehicle: other): 103 % of control

Compound: CC([NH-])C(C)[NH-].CC([NH-])C(C)[NH-].[Cl][Co][Cl] (stereo unspecified)
- T/C (dose: 50.0 mg/kg/injection, schedule: Q04DX002 (ip), vehicle: saline): 102 % of control
- T/C (dose: 100.0 mg/kg/injection, schedule: Q04DX002 (ip), vehicle: saline): 112 % of control
- T/C (dose: 200.0 mg/kg/injection, schedule: Q04DX002 (ip), vehicle: saline): 122 % of control
